Measured values from publication PMC3755730 (The Journal of neuroscience : the official journal of the …, 2013).

Tests used:
[1] = target: N2A (GluN2A), in N1/N2A (A-type) NMDA receptor (Mus musculus, UniProt P35436); assay: whole-cell patch clamp, EPSC dose-inhibition in N2B knockout neurons; format: cell-based
[2] = target: N2B (GluN2B), in N1/N2B (B-type) NMDA receptor (Mus musculus, UniProt Q01097); assay: whole-cell patch clamp, EPSC dose-inhibition in N2A knockout neurons; format: cell-based
Sequence of N2B (GluN2B), in N1/N2B (B-type) NMDA receptor (Q01097 27-1482, other chains not shown): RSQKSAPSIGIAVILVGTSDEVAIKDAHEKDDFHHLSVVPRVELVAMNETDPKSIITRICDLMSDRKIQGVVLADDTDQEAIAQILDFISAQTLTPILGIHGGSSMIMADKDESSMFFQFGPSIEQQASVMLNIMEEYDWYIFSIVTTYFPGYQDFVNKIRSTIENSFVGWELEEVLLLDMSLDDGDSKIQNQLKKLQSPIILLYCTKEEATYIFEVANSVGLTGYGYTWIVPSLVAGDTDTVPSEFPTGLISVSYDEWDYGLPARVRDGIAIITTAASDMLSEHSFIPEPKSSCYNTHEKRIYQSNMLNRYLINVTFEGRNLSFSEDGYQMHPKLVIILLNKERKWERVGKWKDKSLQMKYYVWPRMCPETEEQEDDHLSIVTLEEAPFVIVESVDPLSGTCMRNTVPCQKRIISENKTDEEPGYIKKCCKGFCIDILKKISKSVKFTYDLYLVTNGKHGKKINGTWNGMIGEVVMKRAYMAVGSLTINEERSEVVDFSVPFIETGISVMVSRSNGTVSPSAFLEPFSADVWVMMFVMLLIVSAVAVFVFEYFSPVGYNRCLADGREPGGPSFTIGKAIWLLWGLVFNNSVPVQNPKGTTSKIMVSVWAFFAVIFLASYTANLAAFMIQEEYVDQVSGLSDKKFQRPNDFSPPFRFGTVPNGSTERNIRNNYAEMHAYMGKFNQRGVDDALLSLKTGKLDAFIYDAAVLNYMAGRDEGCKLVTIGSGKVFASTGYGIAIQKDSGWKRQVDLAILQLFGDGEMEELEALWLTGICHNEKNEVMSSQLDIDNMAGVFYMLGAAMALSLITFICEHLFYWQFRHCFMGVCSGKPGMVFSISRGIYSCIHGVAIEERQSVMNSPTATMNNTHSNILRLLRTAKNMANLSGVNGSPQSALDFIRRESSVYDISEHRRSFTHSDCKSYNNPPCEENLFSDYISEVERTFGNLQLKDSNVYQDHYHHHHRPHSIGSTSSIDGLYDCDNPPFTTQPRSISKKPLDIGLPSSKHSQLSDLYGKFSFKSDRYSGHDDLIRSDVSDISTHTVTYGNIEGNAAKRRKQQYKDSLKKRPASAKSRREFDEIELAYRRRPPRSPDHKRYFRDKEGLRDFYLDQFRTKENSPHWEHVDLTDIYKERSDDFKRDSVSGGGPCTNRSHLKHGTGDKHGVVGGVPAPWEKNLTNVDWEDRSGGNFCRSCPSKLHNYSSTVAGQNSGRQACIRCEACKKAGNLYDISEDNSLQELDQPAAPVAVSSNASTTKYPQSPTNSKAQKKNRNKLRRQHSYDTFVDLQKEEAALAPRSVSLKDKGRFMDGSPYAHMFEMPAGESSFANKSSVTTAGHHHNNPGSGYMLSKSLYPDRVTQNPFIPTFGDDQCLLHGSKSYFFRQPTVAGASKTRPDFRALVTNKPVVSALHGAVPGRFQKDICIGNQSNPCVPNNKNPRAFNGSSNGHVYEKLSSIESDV

Sequence of N2A (GluN2A), in N1/N2A (A-type) NMDA receptor (P35436 23-1464, other chains not shown): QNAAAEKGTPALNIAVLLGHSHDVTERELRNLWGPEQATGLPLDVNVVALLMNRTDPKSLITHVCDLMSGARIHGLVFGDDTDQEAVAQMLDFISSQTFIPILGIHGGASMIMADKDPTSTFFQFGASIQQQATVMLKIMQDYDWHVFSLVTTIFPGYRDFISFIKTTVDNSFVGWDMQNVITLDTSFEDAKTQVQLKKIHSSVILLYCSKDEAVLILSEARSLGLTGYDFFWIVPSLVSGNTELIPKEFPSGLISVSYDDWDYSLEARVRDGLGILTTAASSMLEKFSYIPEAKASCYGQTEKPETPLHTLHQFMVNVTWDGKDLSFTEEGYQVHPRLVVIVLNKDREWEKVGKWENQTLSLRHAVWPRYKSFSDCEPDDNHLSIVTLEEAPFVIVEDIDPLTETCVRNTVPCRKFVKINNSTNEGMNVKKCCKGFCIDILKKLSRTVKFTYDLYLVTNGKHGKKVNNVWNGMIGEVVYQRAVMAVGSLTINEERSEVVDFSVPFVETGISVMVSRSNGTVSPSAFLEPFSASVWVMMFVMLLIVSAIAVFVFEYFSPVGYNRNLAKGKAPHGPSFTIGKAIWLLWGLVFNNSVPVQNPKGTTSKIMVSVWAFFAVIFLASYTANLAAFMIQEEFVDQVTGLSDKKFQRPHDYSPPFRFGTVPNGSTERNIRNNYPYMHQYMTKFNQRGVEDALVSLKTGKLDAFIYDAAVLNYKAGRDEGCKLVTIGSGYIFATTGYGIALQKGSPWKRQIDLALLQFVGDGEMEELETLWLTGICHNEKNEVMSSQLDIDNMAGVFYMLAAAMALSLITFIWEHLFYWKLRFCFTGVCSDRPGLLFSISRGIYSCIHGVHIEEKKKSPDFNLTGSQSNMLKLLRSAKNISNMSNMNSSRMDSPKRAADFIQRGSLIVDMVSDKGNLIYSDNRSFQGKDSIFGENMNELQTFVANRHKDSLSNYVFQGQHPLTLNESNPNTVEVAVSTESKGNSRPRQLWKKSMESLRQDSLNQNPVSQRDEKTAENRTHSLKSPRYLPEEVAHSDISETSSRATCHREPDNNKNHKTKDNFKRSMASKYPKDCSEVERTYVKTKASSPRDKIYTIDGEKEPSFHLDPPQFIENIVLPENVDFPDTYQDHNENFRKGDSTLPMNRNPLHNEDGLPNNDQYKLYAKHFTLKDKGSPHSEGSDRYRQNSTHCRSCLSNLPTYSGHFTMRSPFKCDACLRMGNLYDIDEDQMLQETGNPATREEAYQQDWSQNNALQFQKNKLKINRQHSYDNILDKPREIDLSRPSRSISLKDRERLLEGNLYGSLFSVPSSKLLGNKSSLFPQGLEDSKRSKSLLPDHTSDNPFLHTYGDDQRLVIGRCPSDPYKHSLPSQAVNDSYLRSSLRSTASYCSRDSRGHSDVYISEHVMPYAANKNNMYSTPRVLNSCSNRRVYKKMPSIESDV

Question: What does the source list for `C[C@H](N[C@@H](c1cccc2[nH]c(=O)c(=O)[nH]c12)P(=O)(O)O)c1ccc(Br)cc1` [NVP-AAM077]?
Answer: IC50 [1]: 10 nM; IC50 [2]: 119 nM
